The test relates to L1210 leukemia ip in BDF1 mice, survival T/C. As to the kind of experiment: NCI In Vivo Anticancer Drug Screen. Data for tumor model L1210 Leukemia (intraperitoneal) in B6D2F1 (BDF1) mice. The note with it: endpoint: mean survival time, higher = longer survival. Put shortly: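 Mice bearing the transplanted tumor received compound or vehicle. Survival of the treated group was divided by that of the vehicle-treated control group to give the ratio.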

The mark [1] stands for this setting: dose: 50.0 mg/kg/injection, schedule: Q01DX009 (ip), vehicle: Klucel (hydroxypropylcellulose) (HPC).
Setting [2] is: dose: 100.0 mg/kg/injection, schedule: Q01DX001 (ip), vehicle: saline.
Where [3] appears, read: dose: 100.0 mg/kg/injection, schedule: Q01DX009 (ip), vehicle: Klucel (hydroxypropylcellulose) (HPC).
Where [4] appears, read: dose: 100.0 mg/kg/injection, schedule: Q01DX009 (ip), vehicle: saline with Tween-80.
[5] abbreviates: dose: 200.0 mg/kg/injection, schedule: Q01DX001 (ip), vehicle: saline.
The mark [6] stands for this setting: dose: 200.0 mg/kg/injection, schedule: Q01DX009 (ip), vehicle: Klucel (hydroxypropylcellulose) (HPC).
Where [7] appears, read: dose: 200.0 mg/kg/injection, schedule: Q01DX009 (ip), vehicle: saline with Tween-80.
[8] abbreviates: dose: 400.0 mg/kg/injection, schedule: Q01DX009 (ip), vehicle: Klucel (hydroxypropylcellulose) (HPC).
The mark [9] stands for this setting: dose: 100.0 mg/kg/injection, schedule: Q04DX003 (ip), vehicle: Klucel (hydroxypropylcellulose) (HPC).
The mark [10] stands for this setting: dose: 200.0 mg/kg/injection, schedule: Q04DX003 (ip), vehicle: Klucel (hydroxypropylcellulose) (HPC).
[11] abbreviates: dose: 25.0 mg/kg/injection, schedule: Q01DX009 (ip), vehicle: Klucel (hydroxypropylcellulose) (HPC).
[12] abbreviates: dose: 25.0 mg/kg/injection, schedule: Q04DX002 (ip), vehicle: Klucel (hydroxypropylcellulose) (HPC).
The mark [13] stands for this setting: dose: 50.0 mg/kg/injection, schedule: Q04DX002 (ip), vehicle: Klucel (hydroxypropylcellulose) (HPC).

The structures appear in SMILES notation. Several values for one entry are separate records, joined by “and”; a condition that tells them apart may be missing. Equal values may be shown once. Inconclusive results and toxic doses are left out.

As for `O=C(NO)c1ccccc1`, the T/C by setting is: (dose: 25.0 mg/kg/injection, schedule: Q03HX032 (ip), vehicle: saline) 97 % of control; (dose: 38.0 mg/kg/injection, schedule: Q03HX032 (ip), vehicle: saline) 95 % of control; under setting [1], 90 % of control; (dose: 50.0 mg/kg/injection, schedule: Q01DX009 (ip), vehicle: saline with Tween-80) 98 % of control; (dose: 57.0 mg/kg/injection, schedule: Q01DX015 (ip), vehicle: saline) 92 % of control; (dose: 57.0 mg/kg/injection, schedule: Q03HX032 (ip), vehicle: saline) 100 % of control. In addition, the T/C (dose: 62.0 mg/kg/injection, schedule: Q03HX024 (ip), vehicle: saline) is 96 % of control; the T/C (dose: 85.0 mg/kg/injection, schedule: Q01DX015 (ip), vehicle: saline) was 90 % of control; the T/C (dose: 85.0 mg/kg/injection, schedule: Q03HX032 (ip), vehicle: saline) was 98 % of control and 100 % of control; the T/C under setting [2] was 95 % of control; the T/C under setting [3] was 97 % of control and 113 % of control; the T/C (dose: 100.0 mg/kg/injection, schedule: Q01DX009 (ip), vehicle: acetone) was 98 % of control. The T/C by setting is: under setting [4], 96 % of control; (dose: 100.0 mg/kg/injection, schedule: Q04DX003 (ip), vehicle: saline) 103 % of control; (dose: 125.0 mg/kg/injection, schedule: Q03HX024 (ip), vehicle: saline) 91 % of control; (dose: 130.0 mg/kg/injection, schedule: Q01DX015 (ip), vehicle: saline) 100 % of control; (dose: 130.0 mg/kg/injection, schedule: Q03HX032 (ip), vehicle: saline) 98 % of control; (dose: 177.0 mg/kg/injection, schedule: Q01DX009 (ip), vehicle: saline) 100 % of control. The T/C was 110 % of control (dose: 178.0 mg/kg/injection, schedule: Q01DX009 (ip), vehicle: saline with Tween-80); 92 % of control under setting [5]; 115 % of control and 124 % of control under setting [6]; 98 % of control (dose: 200.0 mg/kg/injection, schedule: Q01DX009 (ip), vehicle: acetone); 112 % of control under setting [7]; 97 % of control and 113 % of control (dose: 200.0 mg/kg/injection, schedule: Q01DX015 (ip), vehicle: saline). Moreover, the T/C is 108 % of control (dose: 200.0 mg/kg/injection, schedule: Q04DX003 (ip), vehicle: saline); 120 % of control (dose: 264.0 mg/kg/injection, schedule: Q01DX009 (ip), vehicle: acetone); 123 % of control (dose: 264.0 mg/kg/injection, schedule: Q01DX009 (ip), vehicle: saline); 105 % of control and 112 % of control (dose: 264.0 mg/kg/injection, schedule: Q04DX003 (ip), vehicle: saline); 113 % of control (dose: 266.0 mg/kg/injection, schedule: Q01DX009 (ip), vehicle: saline with Tween-80); 121 % of control (dose: 300.0 mg/kg/injection, schedule: Q01DX015 (ip), vehicle: saline). The T/C by setting is: under setting [8], 168 % of control; (dose: 400.0 mg/kg/injection, schedule: Q01DX009 (ip), vehicle: acetone) 153 % of control; (dose: 400.0 mg/kg/injection, schedule: Q04DX003 (ip), vehicle: saline) 117 % of control and 91 % of control; (dose: 450.0 mg/kg/injection, schedule: Q01DX015 (ip), vehicle: saline) 153 % of control; (dose: 600.0 mg/kg/injection, schedule: Q01DX009 (ip), vehicle: saline) 159 % of control.

Consider `Cc1ccc(NC(=O)c2ccc(C)c(NC(=O)C(F)(F)F)c2)c(C)c1`, for which the T/C runs as follows: (dose: 50.0 mg/kg/injection, schedule: Q04DX003 (ip), vehicle: Klucel (hydroxypropylcellulose) (HPC)) 97 % of control; under setting [9], 100 % of control; under setting [10], 95 % of control.

On to `CO/C=C1\Cc2cc(OC)c(OC)cc2C1=O`, for which the T/C under setting [4] was 102 % of control; the T/C under setting [7] was 104 % of control; the T/C (dose: 400.0 mg/kg/injection, schedule: Q01DX009 (ip), vehicle: saline with Tween-80) is 94 % of control.

As for `COc1ccc(C(O)CCN2CCCCC2)cc1` (stereo not given), the T/C (dose: 100.0 mg/kg/injection, schedule: Q01DX001 (ip), vehicle: saline with Tween-80) was 112 % of control.

In the case of `CCCCCCCCCNC(=O)Nc1cccc(Cl)c1C`, the T/C is, setting by setting: under setting [4], 86 % of control; (dose: 100.0 mg/kg/injection, schedule: Q04DX003 (ip), vehicle: saline with Tween-80) 90 % of control; under setting [7], 87 % of control; (dose: 200.0 mg/kg/injection, schedule: Q04DX003 (ip), vehicle: saline with Tween-80) 90 % of control; (dose: 400.0 mg/kg/injection, schedule: Q04DX003 (ip), vehicle: saline with Tween-80) 90 % of control.

For `CC(C)c1ccc(C(=O)C2CC2)cc1`, the T/C by setting is: under setting [11], 93 % of control; under setting [1], 101 % of control; under setting [3], 93 % of control and 91 % of control; under setting [9], 96 % of control; under setting [10], 96 % of control; (dose: 400.0 mg/kg/injection, schedule: Q04DX003 (ip), vehicle: Klucel (hydroxypropylcellulose) (HPC)) 94 % of control.

For the compound `NC(CCC(=O)NC1(C(=O)O)C2CC3CC(C2)CC1C3)C(=O)O` (stereo not given), the T/C runs as follows: under setting [3], 87 % of control; under setting [6], 103 % of control; under setting [8], 89 % of control.

For the compound `O=C(Nc1ccc(Cl)cc1)Nc1ccccc1Cl`, the T/C reads like this: (dose: 100.0 mg/kg/injection, schedule: Q01DX009 (ip), vehicle: gum acacia) 91 % of control; (dose: 100.0 mg/kg/injection, schedule: Q04DX003 (ip), vehicle: gum acacia) 100 % of control; (dose: 200.0 mg/kg/injection, schedule: Q01DX009 (ip), vehicle: gum acacia) 87 % of control; (dose: 200.0 mg/kg/injection, schedule: Q04DX003 (ip), vehicle: gum acacia) 96 % of control; (dose: 400.0 mg/kg/injection, schedule: Q01DX009 (ip), vehicle: gum acacia) 89 % of control; (dose: 400.0 mg/kg/injection, schedule: Q04DX003 (ip), vehicle: gum acacia) 102 % of control.

As to `CCCC(C)(CO)COC(N)=O` (stereo not given), the T/C by setting is: under setting [2], 105 % of control; under setting [5], 103 % of control; (dose: 400.0 mg/kg/injection, schedule: Q01DX001 (ip), vehicle: saline) 111 % of control.

With `CCCCCCCCCCCCC(C)C(=O)O` (stereo not given), the T/C runs as follows: under setting [12], 96 % of control; under setting [13], 93 % of control; under setting [3], 105 % of control; (dose: 100.0 mg/kg/injection, schedule: Q04DX002 (ip), vehicle: Klucel (hydroxypropylcellulose) (HPC)) 101 % of control; under setting [6], 91 % of control; (dose: 200.0 mg/kg/injection, schedule: Q04DX002 (ip), vehicle: Klucel (hydroxypropylcellulose) (HPC)) 98 % of control. Moreover, the T/C runs as follows: under setting [8], 91 % of control; (dose: 400.0 mg/kg/injection, schedule: Q04DX002 (ip), vehicle: Klucel (hydroxypropylcellulose) (HPC)) 98 % of control.

Take `O=C1NC(=O)C2C3OC(C(Cl)C3Cl)C12` (stereo not given): the T/C by setting is: (dose: 12.5 mg/kg/injection, schedule: Q04DX002 (ip), vehicle: Klucel (hydroxypropylcellulose) (HPC)) 98 % of control; under setting [11], 97 % of control; under setting [12], 102 % of control; under setting [1], 107 % of control; under setting [13], 98 % of control; (dose: 75.0 mg/kg/injection, schedule: Q01DX009 (ip), vehicle: Klucel (hydroxypropylcellulose) (HPC)) 96 % of control. The T/C (dose: 75.0 mg/kg/injection, schedule: Q01DX009 (ip), vehicle: carboxymethylcellulose (CMC)) was 100 % of control.

Source of the values: PubChem BioAssay AID248 (DTP/NCI, 2004).
